According to ChEMBL document CHEMBL1201862, “PubChem BioAssay data set” (2004):
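96-well plates; 48 h exposure; 5 concentrations. Endpoints by linear interpolation between flanking doses. Not reached: highest tested concentration assigned. The concentration for 50% growth inhibition is given as GI50.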 The source made the active and inactive calls. Rule as the data show it: active = GI50 up to about 1.1 µM and inactive = higher.

Columns and labels:
Assay in all cases: NCI-60 cell line screen, 48 h
[1] = tested on: TK-10
[2] = tested on: RPMI-8226
[3] = tested on: NCI-H522
[4] = tested on: OVCAR-5
[5] = tested on: LOX IMVI
[6] = tested on: LXFL 529
[7] = tested on: EKVX
[8] = tested on: NCI-H23
[9] = tested on: CCRF-CEM
[10] = tested on: UO-31
[11] = tested on: SNB-75
[12] = tested on: HL-60
[13] = tested on: KM12
[14] = tested on: HOP-62
[15] = tested on: NCI-H226
[16] = tested on: UACC-62
[17] = tested on: SF-295
[18] = tested on: NCI-H460
[19] = tested on: M14
[20] = tested on: IGROV-1
[21] = tested on: SW-620
[22] = tested on: HOP-18
[23] = tested on: UACC-257
[24] = tested on: HCC 2998
[25] = tested on: SF-539
[26] = tested on: DMS-114
[27] = tested on: HOP-92
[28] = tested on: SK-MEL-28
[29] = tested on: CAKI-1
[30] = tested on: K562
[31] = tested on: HT-29
[32] = tested on: DLD-1
[33] = tested on: OVCAR-8
[34] = tested on: HCT-15
[35] = tested on: OVCAR-3
[36] = tested on: SF-268
[37] = tested on: Malme-3M
[38] = tested on: HCT-116
[39] = tested on: MOLT-4
[40] = tested on: DMS-273
[41] = tested on: KM-20L2
[42] = tested on: 786-0
[43] = tested on: OVCAR-4
[44] = tested on: SN12C
[45] = tested on: SK-OV-3
[46] = tested on: SNB-19
[47] = tested on: ACHN
[48] = tested on: SNB-78
[49] = tested on: SR
[50] = tested on: A498
[51] = tested on: U-251
[52] = tested on: A549
[53] = tested on: COLO 205
[54] = tested on: M19-MEL
[55] = tested on: RXF 393
[56] = tested on: XF498
[57] = tested on: RXF 631
[58] = tested on: SK-MEL-5
[59] = tested on: SK-MEL-2

Measured: GI50

COc1ccc(C2CC(c3cc(C)ccc3O)=NC(N)=N2)cc1 (stereo unspecified)
> 100 µM: [34]
inactive: [1] > 100 µM | [2] > 100 µM | [3] > 100 µM | [4] > 100 µM | [5] > 100 µM | [6] > 100 µM | [7] > 100 µM | [8] > 100 µM | [9] > 100 µM | [10] > 100 µM | [11] > 100 µM | [12] > 100 µM | [13] > 100 µM | [14] > 100 µM | [15] > 100 µM | [16] > 100 µM | [17] > 100 µM | [18] > 100 µM | [19] > 100 µM | [20] > 100 µM | [21] > 100 µM | [22] > 100 µM | [23] > 100 µM | [24] > 100 µM | [25] > 100 µM | [26] > 100 µM | [27] > 100 µM | [28] > 100 µM | [29] > 100 µM | [30] > 100 µM | [31] > 100 µM | [32] > 100 µM | [33] > 100 µM | [35] > 100 µM | [36] > 100 µM | [37] > 100 µM | [38] > 100 µM | [39] > 100 µM | [40] > 100 µM | [41] > 100 µM | [42] > 100 µM | [43] > 100 µM | [44] > 100 µM | [45] > 100 µM | [46] > 100 µM | [47] > 100 µM | [48] > 100 µM | [49] > 100 µM | [50] > 100 µM | [51] > 100 µM | [52] > 100 µM | [53] > 100 µM | [54] > 100 µM | [55] > 100 µM | [56] > 100 µM

COc1ccc2cc1Oc1ccc(cc1)C[C@@H]1c3cc(c(OC)cc3CCN1C)Oc1c(OC)c(OC)cc3c1[C@@H](C2)N(C)CC3 [PHAEANTHINE]
15.6 µM: [34]
inactive: [1] 19.2 µM | [2] 15.6 µM | [3] 15.7 µM | [6] 18.7 µM | [8] 17.6 µM | [9] 14.3 µM | [11] 9.73 µM | [12] 16.7 µM | [14] 18.9 µM | [17] 17.5 µM | [18] 14.3 µM | [19] 1.98 µM | [20] 19.8 µM | [23] 14.9 µM | [24] 15.8 µM | [25] 10.9 µM | [57] 14.1 µM | [27] 13.2 µM | [30] 2.11 µM | [58] 17.2 µM | [32] 24.8 µM | [33] 14.9 µM | [35] 15.7 µM | [36] 25 µM | [38] 2.83 µM | [40] 17.3 µM | [41] 6.56 µM | [45] 24.7 µM | [46] 16.9 µM | [47] 19.2 µM | [48] 16.6 µM | [49] 15.9 µM | [50] 18.5 µM | [51] 13.2 µM | [55] 1.6 µM | [56] 6.98 µM

C[n+]1c2ccccc2c(/C=N\NS(=O)(=O)c2ccc(O)c(C(=O)O)c2)c2ccccc21
38.7 µM: [34]
inactive: [1] > 100 µM | [2] 40.6 µM | [3] 30.6 µM | [4] > 100 µM | [5] 12.9 µM | [7] 78.9 µM | [8] 91.4 µM | [9] 21.8 µM | [10] 29.2 µM | [11] 34.2 µM | [12] 22.1 µM | [13] 60.3 µM | [14] > 100 µM | [15] 26.1 µM | [16] 49.3 µM | [17] > 100 µM | [18] 36.2 µM | [19] 64.1 µM | [20] 58.5 µM | [21] 41.1 µM | [23] > 10 µM | [24] > 100 µM | [25] 63.4 µM | [26] 34 µM | [57] 31.6 µM | [27] 46.7 µM | [28] 61.7 µM | [29] 28.2 µM | [30] 27.5 µM | [31] 35.3 µM | [58] 39.8 µM | [32] 58.7 µM | [33] 43.7 µM | [35] 49.1 µM | [36] 40.7 µM | [37] > 100 µM | [38] 32.6 µM | [39] 18.5 µM | [40] 35.6 µM | [41] 53.6 µM | [42] 34.4 µM | [43] > 100 µM | [44] 67.8 µM | [45] > 100 µM | [46] 67.9 µM | [47] 80.2 µM | [48] > 100 µM | [59] 63.5 µM | [50] 37.6 µM | [51] 94 µM | [52] 23.4 µM | [54] 99.8 µM | [55] 32.7 µM | [56] 14.9 µM

O=C(O)C1=C(C(=O)Nc2ccc(NC(=O)C3=C(C(=O)O)C4C=CC3C4)cc2)C2C=CC1C2
> 100 µM: [34]
inactive: [1] > 100 µM | [2] > 100 µM | [4] > 100 µM | [5] > 100 µM | [6] > 100 µM | [7] > 100 µM | [8] > 100 µM | [9] > 100 µM | [10] > 100 µM | [11] > 100 µM | [12] > 100 µM | [13] > 100 µM | [14] > 100 µM | [16] > 100 µM | [17] > 100 µM | [18] > 100 µM | [19] > 100 µM | [20] > 100 µM | [21] > 100 µM | [22] > 100 µM | [23] > 100 µM | [24] > 100 µM | [25] > 100 µM | [26] > 100 µM | [27] > 100 µM | [28] > 100 µM | [29] > 100 µM | [30] 54.5 µM | [31] > 100 µM | [58] > 100 µM | [32] > 100 µM | [33] > 100 µM | [35] > 100 µM | [36] > 100 µM | [37] > 100 µM | [38] > 100 µM | [39] > 100 µM | [40] > 100 µM | [41] > 100 µM | [42] > 100 µM | [43] > 100 µM | [44] > 100 µM | [45] > 100 µM | [46] > 100 µM | [47] > 100 µM | [48] > 100 µM | [59] 69.7 µM | [49] > 100 µM | [50] > 100 µM | [51] > 100 µM | [52] > 100 µM | [53] > 100 µM | [54] > 100 µM | [55] > 100 µM | [56] > 100 µM

CCOC(OC1=C(C#N)CCCC1)C(C)[Se]c1ccccc1 (stereo unspecified)
inactive: [1] > 100 µM | [2] 28.3 µM | [3] 16 µM | [4] > 100 µM | [5] 16 µM | [6] 22.7 µM | [7] 28.7 µM | [8] 16 µM | [9] 21.7 µM | [10] 43.6 µM | [11] 36.9 µM | [12] 17.3 µM | [13] > 100 µM | [14] 78.3 µM | [15] 30.7 µM | [16] 19.2 µM | [17] 33.3 µM | [18] 54.1 µM | [19] 28.9 µM | [20] 29.2 µM | [22] 38.5 µM | [23] 74.6 µM | [24] > 100 µM | [25] 18.1 µM | [26] 4.29 µM | [27] 31.6 µM | [28] 26 µM | [29] 65.2 µM | [30] 62.1 µM | [31] 52.6 µM | [58] 20.6 µM | [32] 36.2 µM | [33] 24.3 µM | [35] 31.6 µM | [36] 18.5 µM | [37] 55.3 µM | [38] 30.1 µM | [39] 29 µM | [40] 16.3 µM | [41] 62.7 µM | [42] 15.5 µM | [43] 21.7 µM | [44] 25.2 µM | [45] > 100 µM | [46] 54.5 µM | [47] 44.5 µM | [48] > 100 µM | [59] > 100 µM | [49] 20.7 µM | [50] > 100 µM | [51] 13.4 µM | [52] 84.3 µM | [53] 39.7 µM | [54] 29.2 µM | [55] 15.2 µM | [56] 23.6 µM
36.8 µM: [34]
